The source of these data is paper PMC7217150, “Synthesis, Modification, and Biological Evaluation of a Library of Novel Water‐Soluble Thiopyridone‐Based Organometallic Complexes and Their Unexpected (Biological) Behavior” (Chemistry (Weinheim an Der Bergstrasse, Germany), 2020).

Assay type in all cases: cell-based, human
One test has as its system A549. In words: MTT cytotoxicity assay, monolayer culture. The settings on record: exposure time 96 h, means ± SDs. From the text:
(§1) A549 (non‐small cell lung carcinoma), SW480 and HCT‐116 (both colon carcinoma) were kindly provided by Brigitte Marian, Institute of Cancer Research, Department of Medicine I, Medical University of Vienna, Austria. The cell line CH1/PA‐1 (ovarian teratocarcinoma) was kindly provided by Lloyd R. Kelland (CRC Centre for Cancer Therapeutics, Institute of Cancer Research, Sutton, UK). All cell culture media (including supplements) and reagents were obtained from Sigma–Aldrich, and all plasticware from StarLab, unless indicated otherwise.
In general terms: Tetrazolium dyes change colour on reduction, which living cells bring about.

Test [1] relates to SW480. In words: MTT cytotoxicity assay, monolayer culture. The settings on record: for IC50: SW480, MTT assay, exposure time 96 h, means ± SDs.
From the text: as §1

Test [2] concerns CH1/PA‐1. The experiment in a line: MTT cytotoxicity assay, monolayer culture. The note with it: CH1/PA‐1, MTT assay, exposure time 96 h, means ± SDs.
From the text: as §1

Test [3] has as its system SW480. The experiment in a line: Cell cycle distribution, flow cytometry with propidium iodide. The note with it: for Cell cycle distribution G1, % / Cell cycle distribution G2/M, % / Cell cycle distribution S, %: 24 h, mean ± SD; for Relative change in cell cycle distribution G1, % / Relative change in cell cycle distribution G2/M, % / Relative change in cell cycle distribution S, %: difference to untreated control. As to the method:
(§2) The influence of two ligands, as well as seven complexes on cell cycle distribution was tested in two of the cancer cell lines (SW480, CH1/PA‐1) by means of flow cytometry. The cell cycle distribution (G1, S, G2/M phase in %; Table S37) was investigated upon DNA staining with propidium iodide.
(§3) CH1/PA‐1 and SW480 cells were harvested by trypsinization, 8×10^4 and 1.2×10^5 cells per well were seeded into 12‐well plates, respectively. The cells were allowed to attach and resume proliferation for 24 h after the seeding. […] After continuous exposure for 24 h at 37 °C and under 5 % CO2, the cells were harvested by trypsinization and centrifuged at 300 g for 3 min. The cells were washed with PBS (1 mL) and resuspended in propidium iodine (PI) containing HSF buffer (600 μL; 0.1 % Triton X‐100, 0.1 % sodium citrate, 50 μg mL^−1 PI in PBS). After incubation overnight at 4 °C in the dark, 5×10^3 cells were measured by flow cytometry with a Millipore Guava easyCyte 8HT instrument (Luminex, USA). Data were evaluated by means of FlowJo software (Tree Star) using Watson Pragmatic algorithms.60 The fitting of the curve was chosen to keep the root mean square error between 1.0 and 2.0, alongside with good fitting visual model.
On the technique in general: Flow cytometry measures light scatter and fluorescence of single cells or particles in a stream.

Test [4] has as its system CH1/PA‐1. The description is as above. The settings on record: for Cell cycle distribution G1, % / Cell cycle distribution G2/M, % / Cell cycle distribution S, %: 24 h, mean ± SD; for Relative change in cell cycle distribution G1, % / Relative change in cell cycle distribution G2/M, % / Relative change in cell cycle distribution S, %: difference to untreated control. On the procedure: as §2, §3

As a reminder, the IC50 is the concentration that gives 50% inhibition.

With `Cc1c(O)c(=S)ccn1-c1ccccc1` [Compound 2 b, 3‐hydroxy‐2‐methyl‐1‐phenylpyridine‐4(1H)‐thione], the IC50 was 1.6 ± 1.2 µM in the test on A549 (Homo sapiens), 0.52 ± 0.03 µM with SW480 [1] (Homo sapiens) and 0.52 ± 0.05 µM in the test on CH1/PA‐1 [2] (Homo sapiens).

Consider `Cc1c(O)c(=S)ccn1Cc1ccccc1` [Compound 2 c, 3‐hydroxy‐2‐methyl‐1‐benzylpyridine‐4(1H)‐thione], for which the “Cell cycle distribution G1, %” value in the test on SW480 [3] (SW480, 5 µM) amounted to 30 ± 1%; with SW480 [3] (SW480, 10 µM), 27 ± 3%; in the test on SW480 [3] (SW480, 20 µM), 34 ± 5%; with CH1/PA‐1 [4] (CH1/PA-1, 2.5 µM), 43 ± 16%; with CH1/PA‐1 [4] (CH1/PA-1, 5 µM), 31 ± 5%; in the test on CH1/PA‐1 [4] (CH1/PA-1, 10 µM), 31 ± 6%. For the same compound, the “Cell cycle distribution G2/M, %” value is reported as 31 ± 3% with SW480 [3] (SW480, 5 µM); 27 ± 3% in the test on SW480 [3] (SW480, 10 µM); 17 ± 3% in the test with SW480 [3] (SW480, 20 µM); 19 ± 9% in the test on CH1/PA‐1 [4] (CH1/PA-1, 2.5 µM); 32 ± 4% in the test on CH1/PA‐1 [4] (CH1/PA-1, 5 µM); 26 ± 10% in the test on CH1/PA‐1 [4] (CH1/PA-1, 10 µM). In addition, the “Cell cycle distribution S, %” value in the test on SW480 [3] (SW480, 5 µM) came out at 39 ± 2%; in the test with SW480 [3] (SW480, 10 µM), 45 ± 2%; in the test on SW480 [3] (SW480, 20 µM), 49 ± 1%; with CH1/PA‐1 [4] (CH1/PA-1, 2.5 µM) it was 37 ± 5%; in the test with CH1/PA‐1 [4] (CH1/PA-1, 5 µM), 37 ± 2%; in the test with CH1/PA‐1 [4] (CH1/PA-1, 10 µM), 43 ± 8%. Further, the “Relative change in cell cycle distribution G1, %” value is reported as -18% in the test on SW480 [3] (SW480, 5 µM); -21% in the test with SW480 [3] (SW480, 10 µM); -14% with SW480 [3] (SW480, 20 µM); 3% in the test on CH1/PA‐1 [4] (CH1/PA-1, 2.5 µM); -9% in the test on CH1/PA‐1 [4] (CH1/PA-1, 5 µM); -9% in the test with CH1/PA‐1 [4] (CH1/PA-1, 10 µM). Further, the “Relative change in cell cycle distribution G2/M, %” value with SW480 [3] (SW480, 5 µM) is on record as 12%; in the test on SW480 [3] (SW480, 10 µM), 8%; in the test on SW480 [3] (SW480, 20 µM) it was -2%; in the test with CH1/PA‐1 [4] (CH1/PA-1, 2.5 µM), -5%; in the test with CH1/PA‐1 [4] (CH1/PA-1, 5 µM) it was 8%; with CH1/PA‐1 [4] (CH1/PA-1, 10 µM), 2%. Besides, the “Relative change in cell cycle distribution S, %” value came out at 6% with SW480 [3] (SW480, 5 µM); 12% in the test on SW480 [3] (SW480, 10 µM); 16% in the test on SW480 [3] (SW480, 20 µM); 1% in the test on CH1/PA‐1 [4] (CH1/PA-1, 2.5 µM); 1% in the test with CH1/PA‐1 [4] (CH1/PA-1, 5 µM); 7% in the test on CH1/PA‐1 [4] (CH1/PA-1, 10 µM). For the same compound, in the test on SW480 [3] (SW480 cells, 2.5 μM), the “decrease in G1” value turned out to be 18%. For the same compound, in the test with CH1/PA‐1 [4] (CH1/PA‐1 cells), the “effect on cell cycle distribution, in words” value was “little effect”. In addition, the “decrease in G1 phase” value in the test with CH1/PA‐1 [4] (CH1/PA‐1 cells, 10 μM) is listed as 9%. The results for the IC50 in the test on A549 (Homo sapiens) and in the test with SW480 [1] (Homo sapiens) were 0.79 ± 0.12 µM and 0.28 ± 0.04 µM, respectively.

In the case of `Cc1c(O)c(=S)ccn1-c1cccc2ccccc12` [Compound 2 d, 3‐hydroxy‐2‐methyl‐1‐(naphthalene‐1‐yl)pyridine‐4(1H)‐thione], the IC50 in the test on A549 (Homo sapiens) worked out at 1.6 ± 0.1 µM; in the test on SW480 [1] (Homo sapiens), 0.35 ± 0.02 µM; with CH1/PA‐1 [2] (Homo sapiens), 0.62 ± 0.08 µM.

With `Cc1c([O-])c(=S)ccn1-c1ccccc1.Cc1ccc(C(C)C)cc1.[Cl-].[Ru+2]` [Compound 3 b, Chlorido[2‐methyl‐3‐(oxo‐κO)‐1‐phenylpyridine‐4(1H)‐thionato‐κS](η^6‐p‐cymene)ruthenium(II)], the IC50 with A549 was found to be 2.4 ± 0.8 µM; in the test with SW480 [1] it was 2.8 ± 0.1 µM; in the test with CH1/PA‐1 [2] it was 0.94 ± 0.08 µM.

Turning to `Cc1c([O-])c(=S)ccn1-c1cccc2ccccc12.Cc1ccc(C(C)C)cc1.[Cl-].[Ru+2]` [Compound 3 d, Chlorido[2‐methyl‐1‐(naphthalene‐1‐yl)‐3‐(oxo‐κO)‐pyridine‐4(1H)‐thionato‐κS](η^6‐p‐cymene)ruthenium(II)], the IC50 is 2.1 ± 0.3 µM with A549, 4 ± 0.3 µM in the test with SW480 [1] and 1.6 ± 0.3 µM with CH1/PA‐1 [2].

In the case of `Cc1c([O-])c(=S)ccn1C.Cc1ccc(C(C)C)cc1.[Cl-].[Os+2]` [Compound 4 a, [Chlorido[1,2‐dimethyl‐3‐(oxo‐κO)‐pyridine‐4(1H)‐thionato‐κS](η^6‐p‐cymene)osmium(II)]], the IC50 with A549 was > 200 µM; with SW480 [1], > 200 µM; in the test with CH1/PA‐1 [2], 112 ± 27 µM.

For the compound `Cc1c([O-])c(=S)ccn1-c1cccc2ccccc12.Cc1ccc(C(C)C)cc1.[Cl-].[Os+2]` [Compound 4 d, Chlorido[2‐methyl‐1‐(naphthalene‐1‐yl)‐3‐(oxo‐κO)‐pyridine‐4(1H)‐thionato‐κS](η^6‐p‐cymene)osmium(II)], the figures for the IC50 in the test with A549, in the test on SW480 [1] and with CH1/PA‐1 [2] were 2.4 ± 0.3 µM, 7.7 ± 0.3 µM and 1.3 ± 0.3 µM, respectively. In addition, the “IC50 relative to the osmium thiomaltol complex” value with SW480 [1] (SW480 cells) is “four times higher”.

In the case of `COc1cc([C@@H]2c3cc4c(cc3[C@@H](O[C@@H]3O[C@@H]5CO[C@@H](C)O[C@H]5[C@H](O)[C@H]3O)[C@H]3COC(=O)[C@H]23)OCO4)cc(OC)c1O` [Etoposide, reference compound], in the test on SW480 [3] (SW480, 0.25 µM), the “Cell cycle distribution G1, %” value amounted to 9 ± 2%; the “Cell cycle distribution G2/M, %” value was 65 ± 10%; the “Cell cycle distribution S, %” value came to 26 ± 4%; the “Relative change in cell cycle distribution G1, %” value is on record as -39%. In the test on SW480 [3] (SW480, 0.25 µM), the “Relative change in cell cycle distribution G2/M, %” value was determined as 46% and the “Relative change in cell cycle distribution S, %” value is given as -7%. In the test on SW480 [3] (SW480, 0.5 µM), the “Cell cycle distribution G1, %” value worked out at 3 ± 1%; the “Cell cycle distribution G2/M, %” value stood at 78 ± 6%; the “Cell cycle distribution S, %” value stood at 19 ± 7%; the “Relative change in cell cycle distribution G1, %” value is -45%. In the test with SW480 [3] (SW480, 0.5 µM), the “Relative change in cell cycle distribution G2/M, %” value came out at 59% and the “Relative change in cell cycle distribution S, %” value is listed as -14%. In the test on SW480 [3] (SW480, 1 µM), the “Cell cycle distribution G1, %” value is recorded as 6 ± 4%; the “Cell cycle distribution G2/M, %” value stood at 65 ± 10%; the “Cell cycle distribution S, %” value was determined as 30 ± 15%; the “Relative change in cell cycle distribution G1, %” value was -42%. Further, in the test on SW480 [3] (SW480, 1 µM), the “Relative change in cell cycle distribution G2/M, %” value came out at 46% and the “Relative change in cell cycle distribution S, %” value was -3%. Moreover, in the test on CH1/PA‐1 [4] (CH1/PA-1, 0.25 µM), the “Cell cycle distribution G1, %” value is 8 ± 5%; the “Cell cycle distribution S, %” value is on record as 15 ± 4%; the “Relative change in cell cycle distribution G1, %” value is reported as -32%; the “Relative change in cell cycle distribution G2/M, %” value was 53%. Further, in the test with CH1/PA‐1 [4] (CH1/PA-1, 0.25 µM), the “Relative change in cell cycle distribution S, %” value is -21%. In the test on CH1/PA‐1 [4] (CH1/PA-1, 0.5 µM), the “Cell cycle distribution G1, %” value was determined as 4 ± 1%; the “Cell cycle distribution G2/M, %” value came to 85 ± 5%; the “Cell cycle distribution S, %” value came out at 10 ± 3%; the “Relative change in cell cycle distribution G1, %” value is -36%. For the same compound, the “Relative change in cell cycle distribution G2/M, %” value in the test on CH1/PA‐1 [4] (CH1/PA-1, 0.5 µM) was found to be 61%. Besides, in the test on CH1/PA‐1 [4] (CH1/PA-1, 1 µM), the “Cell cycle distribution G1, %” value amounted to 3 ± 3%; the “Cell cycle distribution G2/M, %” value turned out to be 87 ± 6%; the “Cell cycle distribution S, %” value worked out at 10 ± 5%; the “Relative change in cell cycle distribution G1, %” value was -37%. Also, the “Relative change in cell cycle distribution G2/M, %” value in the test on CH1/PA‐1 [4] (CH1/PA-1, 1 µM) came out at 63%.

As to “Chlorido[1‐(naphthalene‐1‐yl)‐2‐methyl‐3‐oxo‐κO‐pyridine‐4(1H)‐thionato‐κS](η^5‐1,2,3,4,5‐pentamethylcyclopentadienyl)iridium(III) [Compound 6 d]”, the IC50 in the test with A549 is 2 ± 0.4 µM; in the test on SW480 [1] it was 0.8 ± 0.15 µM; with CH1/PA‐1 [2], 0.68 ± 0.02 µM.

In the case of “Chlorido[1‐phenyl‐2‐methyl‐3‐oxo‐κO‐pyridine‐4(1H)‐thionato‐κS](η^5‐1,2,3,4,5‐pentamethylcyclopentadienyl)iridium(III) [Compound 6 b]”, the IC50 turned out to be 2.2 ± 0.8 µM in the test with A549, 0.59 ± 0.08 µM in the test with SW480 [1] and 0.82 ± 0.05 µM with CH1/PA‐1 [2].
